Laboratory results from ChEMBL document CHEMBL6083285 (J Med Chem, 2024).
Values after ≈ are worked out from the molar mass of the structure shown. Active and inactive are the calls of the source. The rule behind the calls is not given here.

What was measured:
[1] = Inhibition of NLRP3 inflammasome activation mediated pyroptosis in LPS-stimulated human THP-1 cells preincubated for 3 hrs followed by nigericin addition and measured after 1 hrs by resazurin dye based assay; type: cell-based
[2] = Binding affinity to NanoLuc-tagged NLRP3 (unknown origin) expressed in HEK293 cells incubated for 2 hrs by NanoBRET assay; type: cell-based; conditions: Homo sapiens, HEK293, 2 h
[3] = Inhibition of NLRP3 inflammasome activation in LPS-stimulated human whole blood assessed as reduction in IL-1beta release preincubated for 3 hrs followed by nigericin addition and measured after 1 hrs by Alphalisa method; type: tissue-based
[4] = Metabolic stability in pooled human liver microsomes assessed as intrinsic clearance at 1 uM measured upto 45 mins in presence of NADPH by UPLC-MS/MS analysis; type: ADME, Microsome; conditions: read-out: CLH
[5] = Half-life in male Sprague-Dawley rat at 1 mg/kg, iv measured after 24 hrs by LC-MS analysis; type: ADME, organism-based; conditions: in vivo
[6] = tested on: MDR1; assay: Permeability in MDCKII-MDR1 cells at 5 uM incubated for 2 hrs by LC-MS/MS analysis; type: ADME, cell-based, Canis lupus familiaris; conditions: dog, MDCK-MDR1, read-out: permeability
[7] = tested on: MDR1; assay: Efflux ratio of permeability in MDCKII-MDR1 cells at 5 uM incubated for 2 hrs by LC-MS/MS analysis; type: ADME, cell-based, Canis lupus familiaris; conditions: dog, MDCK-MDR1
[8] = Metabolic stability in rat hepatocytes assessed as intrinsic clearance measured per 10^6 cells at 100 uM incubated upto 60 mins by UPLC-MS/MS analysis; type: ADME, cell-based, Hepatocyte; conditions: read-out: CLH
[9] = tested on: BCRP; assay: Permeability in MDCK-II-BCRP cells at 5 uM incubated for 2 hrs by LC-MS/MS analysis; type: ADME, cell-based, Canis lupus familiaris; conditions: dog, read-out: permeability
[10] = Clearance in male Sprague-Dawley rat at 1 mg/kg, iv measured after 24 hrs by LC-MS analysis; type: ADME, organism-based; conditions: in vivo
[11] = Kinetic solubility of compound; type: physicochemical; conditions: read-out: Kinetic_solubility
[12] = tested on: MDR1; assay: Permeability across apical to basolateral side in pig LLC-PK1 cells transfected with MDR1; type: ADME, cell-based, Sus scrofa; conditions: read-out: permeability
[13] = tested on: MDR1; assay: Efflux ratio of permeability across apical to basolateral side in pig LLC-PK1 cells transfected with MDR1; type: ADME, cell-based, Sus scrofa
[14] = Metabolic stability in human hepatocytes assessed as intrinsic clearance measured per 10^6 cells at 100 uM incubated upto 60 mins by UPLC-MS/MS analysis; type: ADME, cell-based, Hepatocyte; conditions: read-out: CLH
[15] = Lipophilicity, logD of compound at pH 7.4; type: physicochemical; conditions: buffer
[16] = Metabolic stability in pooled mouse liver microsomes assessed as intrinsic clearance at 1 uM measured upto 45 mins in presence of NADPH by UPLC-MS/MS analysis; type: ADME, Microsome; conditions: read-out: CLH
[17] = Protein binding in rat plasma assessed as unbound fraction at 5 uM incubated for 4 hrs by UPLC-MS analysis; type: ADME, cell-free
[18] = Protein binding in mouse plasma assessed as unbound fraction at 5 uM incubated for 4 hrs by UPLC-MS analysis; type: ADME, cell-free
[19] = Metabolic stability in mouse hepatocytes assessed as intrinsic clearance measured per 10^6 cells at 100 uM incubated upto 60 mins by UPLC-MS/MS analysis; type: ADME, cell-based, Hepatocyte; conditions: read-out: CLH
[20] = tested on: BCRP; assay: Efflux ratio of permeability in MDCK-II-BCRP cells at 5 uM incubated for 2 hrs by LC-MS/MS analysis; type: ADME, cell-based, Canis lupus familiaris; conditions: dog
[21] = Protein binding in human plasma assessed as unbound fraction at 5 uM incubated for 4 hrs by UPLC-MS analysis; type: ADME, cell-free
[22] = Volume of distribution at steady state in male Sprague-Dawley rat at 1 mg/kg, iv measured after 24 hrs by LC-MS analysis; type: ADME, organism-based; conditions: in vivo, read-out: Vdss
[23] = AUC (0 to infinity) in male Sprague-Dawley rat at 1 mg/kg, iv measured after 24 hrs by LC-MS analysis; type: ADME, organism-based; conditions: in vivo
[24] = Metabolic stability in pooled rat liver microsomes assessed as intrinsic clearance at 1 uM measured upto 45 mins in presence of NADPH by UPLC-MS/MS analysis; type: ADME, Microsome; conditions: read-out: CLH
[25] = Oral bioavailability in male Sprague-Dawley rat at 10 mg/kg measured after 24 hrs by LC-MS analysis; type: ADME, organism-based; conditions: in vivo
[26] = Volume of distribution at steady state in male Sprague-Dawley rat at 10 mg/kg, po or 1 mg/kg, iv measured after 24 hrs by LC-MS analysis; type: ADME, organism-based; conditions: in vivo
[27] = tested on: Mus musculus; assay: In vivo inhibition of NLRP3 inflammasome activation in LPS/ATP-induced acute inflammatory mouse model assessed as reduction in IL-1beta release in plasma at 100 mg/kg, po preadministered with compound for 1 hrs followed by LPS stimulation for 2 hrs and measured after 30 mins of ATP addition; type: functional, organism-based; conditions: time 3.5 hrs
[28] = Half-life in male Sprague-Dawley rat at 10 mg/kg, po or 1 mg/kg, iv measured after 24 hrs by LC-MS analysis; type: ADME, organism-based; conditions: in vivo
[29] = species: Homo sapiens; assay: Selectivity ratio of IC50 for inhibition of NLRP3 inflammasome activation in LPS-stimulated human whole blood assessed as reduction in IL-1beta release to IC50 for inhibition of NLRP3 inflammasome activation mediated pyroptosis in LPS-stimulated human THP-1 cells

Q: For `CC(C)c1cccc2c1CC(=O)NS(=O)(=O)c1cnn(n1)C(C)(C)COc1cc-2ccn1`, which IC50 [1] is on record?
A: 1680 nM

Q: Which IC50 [2] does the source give for `CC(C)(O)c1coc(S(=O)(=O)NC(=O)Nc2c3c(cc4c2CCC4)CCC3)c1` here?
A: 990 nM

Q: What about the IC50 [1] of the same compound?
A: 64 nM

Q: What about the IC50 [3] of the same compound?
A: 770 nM

Q: With `COc1cc(-c2ccc3c(c2NC(=O)NS(=O)(=O)c2cnn(C(C)C)c2)CCC3)ccn1` as the compound, how does the microsomal CLint at 1 µM [4] read?
A: 45 µL/min/mg

Q: And the IC50 [1]?
A: 16 nM

Q: What about the IC50 [3] of the same compound?
A: 338 nM

Q: What does the source list for `Cc1cc2c(c3c1-c1ccnc(c1)OCC(C)(C)n1cc(F)c(n1)S(=O)(=O)NC(=O)N3)CCC2`?
A: IC50 [1]: 4 nM; IC50 [3]: 102 nM

Q: For `CC(C)c1cc(F)cc2c1CC(=O)NS(=O)(=O)c1cnn(c1)C(C)(C)COc1cc-2ccn1`, which half-life [5] is on record?
A: 1.5 h

Q: What about the Papp at 2 h, 5 µM [6] of the same compound?
A: 10.4 ×10⁻⁶ cm/s

Q: And the efflux ratio at 2 h, 5 µM [7]?
A: 18

Q: What about the hepatocyte CLint at 100 µM [8] of the same compound?
A: < 8 µL/min/1e6 cells

Q: What about the Papp at 2 h, 5 µM [9] of the same compound?
A: 10.9 ×10⁻⁶ cm/s

Q: What about the clearance [10] of the same compound?
A: 3.5 mL/min/kg

Q: What about the solubility kinetic [11] of the same compound?
A: 16.5 µg/mL (≈ 34.9 µM)

Q: What about the Papp A→B [12] of the same compound?
A: 0.39 ×10⁻⁶ cm/s

Q: What about the efflux ratio [13] of the same compound?
A: 2.9

Q: What about the hepatocyte CLint at 100 µM [14] of the same compound?
A: < 8 µL/min/1e6 cells

Q: And the logD [15]?
A: 1.5

Q: And the microsomal CLint at 1 µM [16]?
A: 35 µL/min/mg

Q: What about the fraction unbound at 4 h, 5 µM [17] of the same compound?
A: 0.036

Q: And the fraction unbound at 4 h, 5 µM [18]?
A: 0.086

Q: What about the IC50 [1] of the same compound?
A: 76 nM

Q: What about the hepatocyte CLint at 100 µM [19] of the same compound?
A: 21 µL/min/1e6 cells

Q: And the efflux ratio at 2 h, 5 µM [20]?
A: 6

Q: And the fraction unbound at 4 h, 5 µM [21]?
A: 0.047

Q: What about the Vd [22] of the same compound?
A: 0.4 L/kg

Q: What about the AUC(0-inf) [23] of the same compound?
A: 4900 ng·h/mL

Q: What about the IC50 [3] of the same compound?
A: 351 nM

Q: And the microsomal CLint at 1 µM [24]?
A: < 15.4 µL/min/mg

Q: What does the source list for `CC(C)c1cc(F)cc2c1CC(=O)NS(=O)(=O)c1cnn(c1)C1(COC1)COc1cc-2ccn1`?
A: IC50 [1]: 84 nM; IC50 [3]: 326 nM

Q: What does the source list for `O=C1Nc2c(ccc3c2CCC3)-c2ccnc(c2)OCCCn2ccc(n2)S(=O)(=O)N1`?
A: IC50 [1]: 571 nM; IC50 [3]: 987 nM

Q: For `CC(C)c1cccc2c1CC(=O)NS(=O)(=O)c1cnn(c1)C(C)(C)COc1cc-2ccn1`, which IC50 [1] is on record?
A: 166 nM

Q: And the IC50 [3]?
A: 420 nM

Q: For `CC1(C)COc2cc(ccn2)-c2ccc3c(c2CC(=O)NS(=O)(=O)c2ccn1n2)CCC3`, which IC50 [1] is on record?
A: 16000 nM

Q: Which results are given for `CC(C)c1cccc2c1CC(=O)NS(=O)(=O)c1cnn(c1)C1(CCC1)COc1cc-2ccn1`?
A: IC50 [1]: 52 nM; IC50 [3]: 204 nM

Q: Which IC50 [1] does the source give for `CC(C)c1cccc2c1CC(=O)NS(=O)(=O)c1cccc(c1)C(C)(C)COc1cc-2ccn1` here?
A: 1460 nM

Q: With `CC(C)c1c(F)ccc2c1CC(=O)NS(=O)(=O)c1cn(nc1F)C(C)(C)COc1cc-2ccn1` as the compound, how does the bioavailability [25] read?
A: 36%

Q: What about the hepatocyte CLint at 100 µM [8] of the same compound?
A: < 10.3 µL/min/1e6 cells

Q: What about the Vdss [26] of the same compound?
A: 1.12 L/kg

Q: What about the solubility kinetic [11] of the same compound?
A: 371 µg/mL (≈ 756 µM)

Q: And the Papp A→B [12]?
A: 0.57 ×10⁻⁶ cm/s

Q: What about the efflux ratio [13] of the same compound?
A: 6.4

Q: And the hepatocyte CLint at 100 µM [14]?
A: < 10.3 µL/min/1e6 cells

Q: What about the logD [15] of the same compound?
A: 1.02

Q: What about the microsomal CLint at 1 µM [16] of the same compound?
A: 10.2 µL/min/mg

Q: What about the microsomal CLint at 1 µM [4] of the same compound?
A: < 7.7 µL/min/mg

Q: What about the fraction unbound at 4 h, 5 µM [17] of the same compound?
A: 0.003

Q: What about the fraction unbound at 4 h, 5 µM [18] of the same compound?
A: 0.0126

Q: What about the inhibition [27] of the same compound?
A: Active

Q: And the IC50 [1]?
A: 13 nM

Q: What about the hepatocyte CLint at 100 µM [19] of the same compound?
A: < 10.3 µL/min/1e6 cells

Q: What about the half-life [28] of the same compound?
A: 0.9 h

Q: What about the fraction unbound at 4 h, 5 µM [21] of the same compound?
A: 0.023

Q: And the IC50 [3]?
A: 225 nM

Q: What about the microsomal CLint at 1 µM [24] of the same compound?
A: 3.7 µL/min/mg

Q: Which results are given for `CC(C)c1cc(F)cc2c1CC(=O)NS(=O)(=O)c1cnn(c1)C(C)(CO)COc1cc-2ccn1` (stereo unspecified)?
A: IC50 [1]: 83 nM; IC50 [3]: 486 nM

Q: With `CC(C)n1ccc(S(=O)(=O)NC(=O)Nc2c(-c3ccnc(OC4CCOCC4)c3)ccc3c2CCC3)n1` as the compound, how does the logD [15] read?
A: 0.35

Q: And the Ratio IC50 [29]?
A: 16

Q: What about the IC50 [1] of the same compound?
A: 62 nM

Q: What about the IC50 [3] of the same compound?
A: 1000 nM

Q: What does the source list for `CC(C)c1cccc2c1CC(=O)NS(=O)(=O)c1cnn(c1)C1(CCCC1)COc1cc-2ccn1`?
A: IC50 [1]: 105 nM; IC50 [3]: 506 nM

Q: Which results are given for `O=C1Nc2c(ccc3c2CCC3)-c2ccnc(c2)OCCCCCn2ccc(n2)S(=O)(=O)N1`?
A: IC50 [1]: 289 nM; IC50 [3]: 1100 nM

Q: Which results are given for `O=C1Nc2c(ccc3c2CCC3)-c2ccnc(c2)OCCCCn2ccc(n2)S(=O)(=O)N1`?
A: IC50 [1]: 176 nM; IC50 [3]: 784 nM

Q: With `O=C1Nc2c(ccc3c2CCC3)-c2ccnc(c2)OCCn2ccc(n2)S(=O)(=O)N1` as the compound, how does the IC50 [1] read?
A: 63 nM

Q: And the IC50 [3]?
A: 119 nM

Q: With `CC(C)c1cc(F)cc2c1CC(=O)NS(=O)(=O)c1cn(nc1F)C(C)(C)COc1cc-2ccn1` as the compound, how does the IC50 [1] read?
A: 20 nM

Q: What about the IC50 [3] of the same compound?
A: 450 nM
